Source: patent US20250114448A1, “SAPONIN-BASED ADJUVANTS AND VACCINES” (ASOCIACIÓN CENTRO DE INVESTIGACIÓN COOPERATIVA EN …, priority 2022, published 2025)

Assays:
Design in all cases: species or system mice (C57BL/6)
anti-OVA IgG antibodies = test: Adjuvant activity: anti-OVA total IgG (ELISA) in sera of mice vaccinated with OVA plus saponin (In Vivo Experiment 1); conditions: C75BL6 mice, three subcutaneous injections 10 days apart, OVA 10 μg + saponin 50 μg, endpoint sera day 28, total IgG ELISA
Experimental: Vaccination of mice. In the case of the synthetic saponin adjuvants, groups of five mice (C57BL/6, female, 6-8 weeks old) were vaccinated subcutaneously three times every 10 days (days 0, 11, and 21) with endotoxin-free OVA (EndoFit™ Ovalbumin, Invitrogen) (10 μg/mouse) in phosphate-buffered saline (PBS, 100 μL) either alone (no-adjuvant control group) or with the synthetic saponins (50 μg/mouse). To analyze the antibody responses over time, mice were bled via the submandibular vein at the indicated pre-(day −1) and post-vaccination time points (days 18), and by cardiac puncture at the experimental endpoint (day 28). Blood was collected in BD Microtainer® tubes (Clot Activator/SST™ Gel) and centrifuged at 7500 g for 10 min, after which serum was harvested and stored at −20° C. until further analysis.
Quantification of antibody production. Antibody titers against OVA protein for the saponin adjuvants, or against MUC1 and TnMUC1 antigens in the case of the conjugate constructs were measured by an indirect enzyme-linked immunosorbent assay (ELISA). Briefly, ELISA plates (Thermo Scientific) were coated with endotoxin-free OVA (EndoFit™ Ovalbumin; Invitrogen) or with BSA-MUC1 or BSA-TnMUC1 conjugates at 0.05 μg/well in carbonate buffer (pH 9.5), and plates were incubated overnight at 4° C. After washing the wells (PBS, 10 mM, containing 0.05% Tween 20), plates were blocked with 10% of fetal calf serum (FCS, Biowest) in PBS buffer for 1 h. Serial dilutions of mouse sera in blocking buffer (10% FCS in PBS buffer) were added to the wells with appropriate controls and incubated for 1 h at room temperature. After washing, goat anti-mouse total IgG (Jackson ImmunoResearch) or subclass specific IgG1, IgG2b, IgG2c and IgG3 (SouthernBiotech) antibodies conjugated to horseradish peroxidase (HRP) were added to each well at the dilution indicated by the manufacturer. After 1 h incubation at room temperature, KPL SureBlue Reserve™ commercial solution (100 μL/well, SeraCare) containing 3,3′,5,5′-tetramethylbenzidine (TMB) was added as peroxidase substrate and after incubation for 10 min, the reaction was stopped with 2 N H2SO4 (100 μL/well). Absorbance (OD, 450 nm) was immediately measured using a BioTek® Synergy HT multi-detection microplate reader.
A straightforward proof-of-principle in vivo experiment was carried out to directly compare their adjuvant activities of prior art compound 12 and the compounds of the invention 1 and 2 in terms of IgG antibody production, using chicken ovalbumin (OVA) as a model antigen. […] Endpoint sera after three immunizations were probed via ELISA assays by coating 96-well plates with OVA (0.05 μg/ml) and total IgG optical density (OD) values (at day 28) were measured (FIG. 1).

anti-MUC1 IgG antibodies = test: Self-adjuvanting vaccine: anti-MUC1 total IgG (ELISA, BSA-MUC1 coated plates) in sera of immunized mice (In Vivo Experiment 2); conditions: C57BL/6 mice, subcutaneous, days 0, 11, 21, dose equimolar to 50 μg of MUC1 per injection, no external adjuvant, endpoint sera day 28, versus pre-sera
Experimental: (§1) Concerning the saponin-antigen conjugates, groups of five mice (C57BL/6, female, 6-8 weeks old) were vaccinated subcutaneously three times every […] (days 0, 11, and 21) with the glycoconjugate constructs (50 μg/mouse) in phosphate-buffered saline (PBS, 100 μl). To determine the antibody responses over time, mice were bled via submandibular vein at the indicated post-vaccination time point (day 18), and by cardiac puncture at the experimental endpoint (day 28). Blood was collected in BD Microtainer® tubes (Clot Activator/SST™ Gel) and centrifuged at 13000 g for 10 min. Sera were harvested and stored at −20° C. until further analysis.
(§2) Quantification of antibody production. Antibody titers against OVA protein for the saponin adjuvants, or against MUC1 and TnMUC1 antigens in the case of the conjugate constructs were measured by an indirect enzyme-linked immunosorbent assay (ELISA). Briefly, ELISA plates (Thermo Scientific) were coated with endotoxin-free OVA (EndoFit™ Ovalbumin; Invitrogen) or with BSA-MUC1 or BSA-TnMUC1 conjugates at 0.05 μg/well in carbonate buffer (pH 9.5), and plates were incubated overnight at 4° C. After washing the wells (PBS, 10 mM, containing 0.05% Tween 20), plates were blocked with 10% of fetal calf serum (FCS, Biowest) in PBS buffer for 1 h. […] Absorbance (OD, 450 nm) was immediately measured using a BioTek® Synergy HT multi-detection microplate reader. […]

[1] = test system: anti-TnMUC1 IgG antibodies; test: Self-adjuvanting vaccine: anti-TnMUC1 total IgG (ELISA, BSA-TnMUC1 coated plates) in sera of immunized mice (In Vivo Experiment 2); conditions: C57BL/6 mice, subcutaneous, days 0, 11, 21, dose equimolar to 50 μg of MUC1 per injection, no external adjuvant, endpoint sera day 28, versus pre-sera
Experimental: as §1, §2

SMILES | anti-OVA IgG antibody response versus negative control group (OVA alone) (anti-OVA IgG antibodies) | anti-OVA IgG titers compared to those induced by previous EA lead saponin 12 (C3-hydroxyl) (anti-OVA IgG antibodies) | production of total anti-MUC1 IgG antibodies (anti-MUC1 IgG antibodies) | production of total anti-TnMUC1 IgG antibodies [1]
C[C@@H]1O[C@@H](O[C@H]2[C@H](OC(=O)[C@]34CCC(C)(C)C[C@H]3C3=CC[C@@H]5[C@@]6(C)CC/C(=N/O)C(C)(C)[C@@H]6CC[C@@]5(C)[C@]3(C)C[C@H]4O)O[C@H](CO)[C@H](NC(=O)CCCCCCCCCCC(=O)O)[C@@H]2O)[C@H](O)[C@H](O)[C@H]1O[C@@H]1OC[C@@H](O)[C@H](O)[C@H]1O [compound 2] | significantly higher than that of the negative control group | increased (significantly in the latter case) | – | –
CC[C@H](C)C(NC(=O)[C@H](CCCCN)NC(=O)[C@H](Cc1c[nH]c2ccccc12)NC(=O)[C@@H](NC(=O)[C@H](C)NC(=O)[C@H](Cc1ccccc1)NC(=O)[C@H](CC(C)C)NC(=O)[C@H](CCCCN)CC(=O)NO/N=C1/CCC2(C)C(CCC3(C)C2CC=C2C4CC(C)(C)CC[C@]4(C(=O)O[C@]4([C@@H]5OC(C)[C@H](O[C@@H]6OC[C@@H](O)C(O)C6O)C(O)C5O)OC(CO)[C@H](NC(=O)CCCCCNC(=O)COCCOCCOCC(=O)NCC(=O)N[C@H](C(=O)N[C@H](C(=O)O[C@@H](CO)C(=O)N[C@@H](C)C(=O)N5CCC[C@H]5C(=O)N[C@@H](CC(=O)O)C(=O)N[C@H](C(=O)N[C@@H](CCCNC(=N)N)C(=O)N5CCC[C@H]5C(=O)N[C@@H](C)C(=O)N5CCC[C@H]5C(=O)NCC(=O)N[C@@H](CO)C(=O)N[C@H](C(=O)N[C@@H](C)C(N)=O)C(C)O)C(C)O)C(C)O)C(C)C)C(O)C4O)C(O)CC23C)C1(C)C)C(C)C)C(=O)N[C@H](C(=O)N[C@@H](Cc1ccc(O)cc1)C(=O)N[C@@H](CCCCN)C(=O)N[C@@H](CC(=O)O)C(=O)N[C@H](C(=O)O)[C@@H](C)O)[C@@H](C)O (stereo partly drawn) [compound 10, PV-Echinocystic Acid Saponin-MUC1 Tri-Conjugate] | – | – | high levels | –
CC[C@H](C)C(NC(=O)[C@H](CCCCN)NC(=O)[C@H](Cc1c[nH]c2ccccc12)NC(=O)[C@@H](NC(=O)[C@H](C)NC(=O)[C@H](Cc1ccccc1)NC(=O)[C@H](CC(C)C)NC(=O)[C@H](CCCCN)CC(=O)NO/N=C1/CCC2(C)C(CCC3(C)C2CC=C2C4CC(C)(C)CC[C@]4(C(=O)O[C@]4([C@@H]5OC(C)[C@H](O[C@@H]6OC[C@@H](O)C(O)C6O)C(O)C5O)OC(CO)[C@H](NC(=O)CCCCCNC(=O)COCCOCCOCC(=O)NCC(=O)N[C@H](C(=O)N[C@H](C(=O)O[C@@H](CO)C(=O)N[C@@H](C)C(=O)N5CCC[C@H]5C(=O)N[C@@H](CC(=O)O)C(=O)N[C@H](C(=O)N[C@@H](CCCNC(=N)N)C(=O)N5CCC[C@H]5C(=O)N[C@@H](C)C(=O)N5CCC[C@H]5C(=O)NCC(=O)N[C@@H](CO)C(=O)N[C@H](C(=O)N[C@@H](C)C(N)=O)C(C)O)C(C)O[C@H]5OC(CO)[C@H](O)C(O)C5NC(C)=O)C(C)O)C(C)C)C(O)C4O)C(O)CC23C)C1(C)C)C(C)C)C(=O)N[C@H](C(=O)N[C@@H](Cc1ccc(O)cc1)C(=O)N[C@@H](CCCCN)C(=O)N[C@@H](CC(=O)O)C(=O)N[C@H](C(=O)O)[C@@H](C)O)[C@@H](C)O (stereo partly drawn) [compound 11, PV-Echinocystic Acid Saponin-TnMUC1 Tri-Conjugate] | – | – | – | high levels
C[C@@H]1O[C@@H](O[C@H]2[C@H](OC(=O)[C@]34CCC(C)(C)C[C@H]3C3=CC[C@@H]5[C@@]6(C)CCC(=O)C(C)(C)[C@@H]6CC[C@@]5(C)[C@]3(C)C[C@H]4O)O[C@H](CO)[C@H](NC(=O)CCCCCCCCCCC(=O)O)[C@@H]2O)[C@H](O)[C@H](O)[C@H]1O[C@@H]1OC[C@@H](O)[C@H](O)[C@H]1O [compound 1] | significantly higher than that of the negative control group | increased | – | –
